Reference: the NIST ThermoML archive (doi:10.1016/j.jct.2018.05.017)
Numbers after ± are expanded uncertainties.

Assays:
[1] = activity coefficient (dimensionless); of the first substance listed, at infinite dilution; xn = mol fraction of the nth substance listed; details: 101.33 kPa, Liquid, Chromatography, x1 = 0
[2] = 101.33 kPa, Liquid, Vibrating tube method

Compound	activity coefficient ([1]; 313.15 K)	activity coefficient ([1]; 323.15 K)	activity coefficient ([1]; 333.15 K)	activity coefficient ([1]; 343.15 K)	activity coefficient ([1]; 353.15 K)	mass density ([2]; 313.15 K) [kg/m3]	mass density ([2]; 323.15 K) [kg/m3]	mass density ([2]; 333.15 K) [kg/m3]	mass density ([2]; 343.15 K) [kg/m3]	mass density ([2]; 353.15 K) [kg/m3]
CCc1ccccc1 [ethylbenzene] + CCCCCCn1cc[n+](C)c1C.F[B-](F)(F)F	3.81 ± 0.4	3.84 ± 0.4	3.88 ± 0.41	3.93 ± 0.41	3.95 ± 0.42					
CCCCCCCCCC [decane] + CCCCCCn1cc[n+](C)c1C.F[B-](F)(F)F	125 ± 13	121 ± 13	112 ± 12	102 ± 11	92 ± 9.7					
CCCCCCC [heptane] + CCCCCCn1cc[n+](C)c1C.F[B-](F)(F)F	47.9 ± 5	45.4 ± 4.8	42.8 ± 4.5	40.2 ± 4.2	37.4 ± 3.9					
CC(C)CC(C)(C)C [2,2,4-trimethylpentane] + CCCCCCn1cc[n+](C)c1C.F[B-](F)(F)F	59.2 ± 6.2	59 ± 6.2	58.2 ± 6.1	57.5 ± 6.1	57.2 ± 6					
CC(C)CO [2-methyl-1-propanol] + CCCCCCn1cc[n+](C)c1C.F[B-](F)(F)F	2.28 ± 0.24	2.15 ± 0.23	2.01 ± 0.21	1.9 ± 0.2	1.85 ± 0.19					
c1ccccc1 [benzene] + CCCCCCn1cc[n+](C)c1C.F[B-](F)(F)F	1.54 ± 0.16	1.55 ± 0.16	1.57 ± 0.16	1.58 ± 0.16	1.59 ± 0.17					
CC#N [acetonitrile] + CCCCCCn1cc[n+](C)c1C.F[B-](F)(F)F	0.52 ± 0.06	0.54 ± 0.06	0.56 ± 0.06	0.57 ± 0.06	0.58 ± 0.06					
C1COCCO1 [1,4-dioxane] + CCCCCCn1cc[n+](C)c1C.F[B-](F)(F)F	1.08 ± 0.11	1.09 ± 0.11	1.1 ± 0.11	1.12 ± 0.11	1.13 ± 0.12					
ClCCl [dichloromethane] + CCCCCCn1cc[n+](C)c1C.F[B-](F)(F)F	0.7 ± 0.07	0.74 ± 0.08	0.8 ± 0.08	0.87 ± 0.09	0.93 ± 0.09					
CCO [ethanol] + CCCCCCn1cc[n+](C)c1C.F[B-](F)(F)F	1.4 ± 0.14	1.31 ± 0.13	1.23 ± 0.13	1.16 ± 0.12	1.09 ± 0.11					
CCCCO [butan-1-ol] + CCCCCCn1cc[n+](C)c1C.F[B-](F)(F)F	2.77 ± 0.29	2.67 ± 0.28	2.5 ± 0.3	2.37 ± 0.25	2.27 ± 0.24					
Cc1ccccc1C [1,2-dimethylbenzene] + CCCCCCn1cc[n+](C)c1C.F[B-](F)(F)F	2.38 ± 0.25	2.57 ± 0.27	2.76 ± 0.29	2.97 ± 0.31	3.16 ± 0.33					
Cc1ccc(C)cc1 [1,4-dimethylbenzene] + CCCCCCn1cc[n+](C)c1C.F[B-](F)(F)F	2.84 ± 0.3	3.05 ± 0.32	3.29 ± 0.35	3.51 ± 0.37	3.76 ± 0.4					
C1=CCCCC1 [cyclohexene] + CCCCCCn1cc[n+](C)c1C.F[B-](F)(F)F	9.89 ± 1	9.67 ± 1	9.51 ± 1	9.36 ± 0.98	9.08 ± 0.95					
CCC(C)O (stereo not given) [butan-2-ol] + CCCCCCn1cc[n+](C)c1C.F[B-](F)(F)F	2.65 ± 0.28	2.56 ± 0.27	2.48 ± 0.26	2.38 ± 0.25	2.28 ± 0.24					
C1CCCCC1 [cyclohexane] + CCCCCCn1cc[n+](C)c1C.F[B-](F)(F)F	19.8 ± 2.1	19.6 ± 2.1	19.5 ± 2	19.1 ± 2	18.9 ± 2					
CCCCCCn1cc[n+](C)c1C.F[B-](F)(F)F [1-hexyl-2,3-dimethylimidazolium tetrafluoroborate]						1129.8 ± 2.4	1123.3 ± 2.4	1116.8 ± 2.4	1110.3 ± 2.4	1103.87 ± 2.4
CCOC(C)=O [ethyl acetate] + CCCCCCn1cc[n+](C)c1C.F[B-](F)(F)F	2.01 ± 0.21	2.12 ± 0.22	2.16 ± 0.23	2.21 ± 0.23	2.26 ± 0.24					
Cc1ccccc1 [toluene] + CCCCCCn1cc[n+](C)c1C.F[B-](F)(F)F	2.21 ± 0.23	2.26 ± 0.24	2.31 ± 0.24	2.35 ± 0.25	2.4 ± 0.25					
ClC(Cl)(Cl)Cl [tetrachloromethane] + CCCCCCn1cc[n+](C)c1C.F[B-](F)(F)F	3.5 ± 0.37	3.61 ± 0.38	3.7 ± 0.4	3.72 ± 0.39	3.86 ± 0.41					
CC(C)=O [acetone] + CCCCCCn1cc[n+](C)c1C.F[B-](F)(F)F	0.84 ± 0.09	0.87 ± 0.09	0.9 ± 0.09	0.93 ± 0.09	0.96 ± 0.1					
Cc1cccc(C)c1 [1,3-dimethylbenzene] + CCCCCCn1cc[n+](C)c1C.F[B-](F)(F)F	3.37 ± 0.35	3.46 ± 0.36	3.59 ± 0.38	3.67 ± 0.39	3.79 ± 0.4					

Continued, values first:

activity coefficient ([1]; 313.15 K)	activity coefficient ([1]; 323.15 K)	activity coefficient ([1]; 333.15 K)	activity coefficient ([1]; 343.15 K)	activity coefficient ([1]; 353.15 K)	mass density ([2]; 313.15 K) [kg/m3]	mass density ([2]; 323.15 K) [kg/m3]	mass density ([2]; 333.15 K) [kg/m3]	mass density ([2]; 343.15 K) [kg/m3]	mass density ([2]; 353.15 K) [kg/m3]	Compound
1.75 ± 0.18	1.67 ± 0.17	1.58 ± 0.16	1.46 ± 0.15	1.39 ± 0.14						CC(C)O [propan-2-ol] + CCCCCCn1cc[n+](C)c1C.F[B-](F)(F)F
28.9 ± 3	25.6 ± 2.7	22.9 ± 2.4	20.6 ± 2.2	18.8 ± 2						CCCCC [pentane] + CCCCCCn1cc[n+](C)c1C.F[B-](F)(F)F
0.68 ± 0.07	0.72 ± 0.08	0.77 ± 0.08	0.82 ± 0.08	0.87 ± 0.09						ClC(Cl)Cl [trichloromethane] + CCCCCCn1cc[n+](C)c1C.F[B-](F)(F)F
1.74 ± 0.18	1.65 ± 0.17	1.53 ± 0.16	1.43 ± 0.15	1.33 ± 0.14						CCCO [propan-1-ol] + CCCCCCn1cc[n+](C)c1C.F[B-](F)(F)F
25.4 ± 2.7	25.4 ± 2.7	24.9 ± 2.6	24.5 ± 2.6	23.9 ± 2.5						CC1CCCCC1 [methylcyclohexane] + CCCCCCn1cc[n+](C)c1C.F[B-](F)(F)F
1.6 ± 0.17	1.62 ± 0.17	1.63 ± 0.17	1.65 ± 0.17	1.58 ± 0.16						C1CCOC1 [tetrahydrofuran] + CCCCCCn1cc[n+](C)c1C.F[B-](F)(F)F
31 ± 3.3	29.5 ± 3.1	27.9 ± 2.9	26.3 ± 2.8	25 ± 2.6						CCCCCC [hexane] + CCCCCCn1cc[n+](C)c1C.F[B-](F)(F)F
0.96 ± 0.1	0.91 ± 0.09	0.86 ± 0.09	0.82 ± 0.08	0.78 ± 0.08						CO [methanol] + CCCCCCn1cc[n+](C)c1C.F[B-](F)(F)F
65.1 ± 6.8	64.1 ± 6.8	62.1 ± 6.5	61.2 ± 6.4	60.4 ± 6.4						CCCCCCCC [octane] + CCCCCCn1cc[n+](C)c1C.F[B-](F)(F)F
89.5 ± 9.4	83.5 ± 8.8	77.8 ± 8.2	72.6 ± 7.7	67.4 ± 7.1						CCCCCCCCC [nonane] + CCCCCCn1cc[n+](C)c1C.F[B-](F)(F)F
